Assay results from the NIST ThermoML archive (doi:10.1016/j.jct.2011.06.002).
± gives the expanded uncertainty stated by the source.

Conditions: for viscosity: 101.33 kPa, Liquid, Falling or rolling sphere viscometry

`Cl.Cn1ccnc1` [1-methylimidazolium chloride] gave a viscosity (348.15 K) of 108.86 ± 3.6 mPa·s, a viscosity (351.15 K) of 92.99 ± 2.8 mPa·s and a viscosity (353.15 K) of 84.17 ± 2.3 mPa·s. The viscosity (358.15 K) was 66.28 ± 1.6 mPa·s and the Normal melting temperature (Crystal, DTA) was 74.16 ± 2 °C.
